Values joined by “and” are separate entries in the source; they are usually repeats but may differ in a detail not shown here. Equal values may be shown once.
Key:
[1] = target: T1, bovine serum albumin (BSA) (Bos taurus, UniProt P02769); conditions: neat buffer (10 mM Tris-HCl), no salt; cited from earlier work
T1 construct: BSA, molecular weight of 66 kDa, 583 residues; purchased Sigma Aldrich Chemicals (Taufkirchen, Germany)

[2] = target: T1, bovine serum albumin (BSA); assay: Steady-state fluorescence titration of ANS with BSA at ambient pressure (binding isotherms); conditions: for Kd: 1 bar, 10 mM Tris-HCl pH 7.4
Text: (§1) The extent of complex formation between ANS and BSA was followed by means of steady-state fluorescence spectroscopy using a K2 fluorometer from ISS, Inc. (Champaign, IL, USA). The binding isotherms were obtained by recording ANS emission spectra by exciting the solutions at 350 nm and recording the emission intensities in the range 400–550 nm. The width slits of the excitation and emission monochromators were both set to 8 nm. Briefly, a series of solutions with a fixed concentration of ANS at ~5 µM were prepared, and the concentration of BSA was varied between 0 and ~40 µM. Then estimation of the binding constants (Kb) was performed by using a plot of ΔF = F − F0 (where F is the fluorescence intensity of ANS at the maximum in the presence of BSA, and F0 is the intensity of ANS in the absence of BSA) as a function of total BSA concentration and fitting the experimental data according to an equivalent and independent binding sites model or to two classes of non-equivalent and independent binding-site models, as described in detail in Reference.
Once the stoichiometries of the complex in the presence of the salts and at the three different temperatures are known, it is possible to estimate the binding constants, Kb, performing titration experiments by means of steady-state fluorescence spectroscopy. In these experiments, a solution of ANS was titrated with a BSA solution. The ANS is characterized by a very low quantum yield when it is free in solution [21]. Instead, when the aromatic ligand is bound to the protein’s hydrophobic pockets, a strong increase of the fluorescence intensity is observed. Thus, the extent of binding can be readily determined by following the fluorescence increase of ANS. The subsequent data analysis was performed according to the stoichiometries inferred by the Job’s plot experiments.

[3] = target: T1, bovine serum albumin (BSA); assay: High hydrostatic pressure fluorescence titration of ANS with BSA (1-2000 bar); assay type: binding; conditions: for Binding volume ΔVb1 (first binding site): from slope of lnKb1 vs p (1-2000 bar); for Binding volume ΔVb1 (first binding site) / Binding volume ΔVb2 (second binding site) / Binding volume ΔVb: per mol of protein; for Binding volume ΔVb2 (second binding site): from slope of lnKb2 vs p (1-2000 bar); for Binding volume ΔVb: from slope of lnKb vs p (1-2000 bar)
Text: as §1
For the pressure dependent measurements, the high-pressure cell system from ISS and quartz cuvettes were used. The pressure was controlled by means of a manual pump, and water was used as pressurizing fluid. A pressure range from 1 to 2000 bar was explored. The ANS and BSA solutions were mixed, vortexed, and then filled into the sample cell, which was sealed with DuraSeal^TM laboratory stretch film and placed into the high-pressure vessel. The stretch film allowed for the pressure transmission in the sample cuvette.
In the next step, we explored the impact of high hydrostatic pressure (HHP) on the binding of ANS to BSA in the presence of the three salts and in the temperature range between 5 and 25 °C. To this end, we performed the same titration experiments following the complex formation by means of HHP fluorescence spectroscopy.
From the pressure dependence of the Kb values, the volume change upon binding, the protein–ligand binding volume ΔVb, can be determined (for an in-depth discussion of pressure effects on ligand binding, please refer to Reference and references therein):(1) [∂lnKb/∂p]T=−ΔVb/RT
Here, [∂lnKb/∂p]T is the derivative of the logarithm of the binding constant (Kb) with respect to pressure (p) at constant temperature (T). R is the universal gas constant. ΔVb is the binding volume defined as the difference between the partial molar volume of the complex (PL, where P is the protein and L the ligand) and the sum of the partial molar volumes of the uncomplexed state (P+L). Thus, the binding volume can be directly estimated by taking the slope of a plot of lnKb vs. p, assuming that the volume change is independent of pressure in the (here rather small) pressure range covered.

T1 sequence (P02769 25-607): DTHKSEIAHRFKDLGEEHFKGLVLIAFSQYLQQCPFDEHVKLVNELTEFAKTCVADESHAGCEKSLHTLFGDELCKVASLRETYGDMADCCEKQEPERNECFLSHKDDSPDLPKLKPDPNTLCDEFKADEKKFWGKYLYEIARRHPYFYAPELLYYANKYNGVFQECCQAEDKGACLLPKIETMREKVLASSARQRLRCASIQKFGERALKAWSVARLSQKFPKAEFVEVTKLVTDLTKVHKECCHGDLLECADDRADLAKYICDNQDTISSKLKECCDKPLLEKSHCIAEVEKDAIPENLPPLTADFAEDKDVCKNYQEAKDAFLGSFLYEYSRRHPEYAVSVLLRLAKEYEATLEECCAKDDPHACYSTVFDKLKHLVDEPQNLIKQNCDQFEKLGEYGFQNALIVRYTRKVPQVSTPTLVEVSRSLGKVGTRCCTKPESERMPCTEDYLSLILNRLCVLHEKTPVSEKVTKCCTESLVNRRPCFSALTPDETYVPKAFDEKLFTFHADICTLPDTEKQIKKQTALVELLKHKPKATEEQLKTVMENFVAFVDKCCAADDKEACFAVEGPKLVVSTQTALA

For `O=S(=O)(O)c1cccc2cccc(Nc3ccccc3)c12` [ANS, 8-anilinonaphthalene-1-sulfonic acid], the “ANS molecules bound on average to one BSA molecule” value [1] is listed as “three”, the “Decrease of Kb on decreasing the temperature from 25 to 15 °C” value ([2]; 250 mM MgCl2, 1 bar) is listed as ~ 90% and the Kd ([2]; Binding constant Kb1, 250 mM Mg(ClO4)2, 5 °C) is listed as 5260 nM. For the same molecule, the Kd ([2]; Binding constant Kb1, 250 mM Mg(ClO4)2, 15 °C) was 6670 nM, the Kd ([2]; Binding constant Kb1, 250 mM Mg(ClO4)2, 25 °C) was 1690 nM and the Kd ([2]; Binding constant Kb1, 250 mM MgCl2, 5 °C) was 1000 ± 100 nM. The Kd ([2]; Binding constant Kb1, 250 mM MgCl2, 15 °C) was 2780 nM, the Kd ([2]; Binding constant Kb1, 250 mM MgCl2, 25 °C) was 204 nM and the Kd ([2]; Binding constant Kb1, 250 mM MgSO4, 5 °C) was 1610 nM. For the same molecule, the Kd ([2]; Binding constant Kb1, 250 mM MgSO4, 15 °C) was 2560 nM, the Kd ([2]; Binding constant Kb1, 250 mM MgSO4, 25 °C) was 345 nM and the Kd ([2]; Binding constant Kb2, 250 mM Mg(ClO4)2, 5 °C) was 5260 nM. For the same molecule, the Kd ([2]; Binding constant Kb2, 250 mM Mg(ClO4)2, 15 °C) was 7690 nM, the Kd ([2]; Binding constant Kb2, 250 mM Mg(ClO4)2, 25 °C) was 833 nM and the “Binding volume ΔVb1 (first binding site)” value ([3]; 250 mM Mg(ClO4)2, 5 °C) was -7.4 mL/mol and -7.4 ± 2.4 mL/mol. For the same molecule, the “Binding volume ΔVb2 (second binding site)” value (shortened to “Binding volume ΔVb2”) ([3]; 250 mM Mg(ClO4)2, 5 °C) was -12.9 mL/mol and -12.9 ± 3.2 mL/mol, the “Binding volume ΔVb1 (first binding site)” value ([3]; 250 mM Mg(ClO4)2, 15 °C) was -6.0 ± 1.0 mL/mol and the “Binding volume ΔVb2” value ([3]; 250 mM Mg(ClO4)2, 15 °C) was -5.0 ± 1.0 mL/mol. The “Binding volume ΔVb1 (first binding site)” value ([3]; 250 mM Mg(ClO4)2, 25 °C) was 6.0 ± 2.0 mL/mol, the “Binding volume ΔVb2” value ([3]; 250 mM Mg(ClO4)2, 25 °C) was 2.0 ± 1.0 mL/mol and the “Increase of Kb with pressure (factor)” value ([3]; 250 mM MgCl2, 5 °C, up to 2 kbar) was “about a factor of two”. The “Binding volume ΔVb” value ([3]; 250 mM MgCl2, 15 °C) was -2.5 ± 0.4 mL/mol, the “Binding volume ΔVb” value ([3]; 250 mM MgCl2, 25 °C) was -1.0 ± 1.0 mL/mol and the “Binding volume ΔVb” value ([3]; 250 mM MgSO4, 5 °C) was 2.0 ± 1.0 mL/mol. For the same molecule, the “Binding volume ΔVb” value ([3]; 250 mM MgSO4, 15 °C) was -2.0 ± 1.0 mL/mol, the “Binding volume ΔVb” value ([3]; 250 mM MgSO4, 25 °C) was 3.6 ± 0.5 mL/mol and the Kd ([3]; Binding constant Kb1, 250 mM Mg(ClO4)2, 5 °C, 1 bar) was 5260 nM. For the same molecule, the Kd ([3]; Binding constant Kb1, 250 mM Mg(ClO4)2, 5 °C, 500 bar) was 3130 nM, the Kd ([3]; Binding constant Kb1, 250 mM Mg(ClO4)2, 5 °C, 1000 bar) was 2940 nM and the Kd ([3]; Binding constant Kb1, 250 mM Mg(ClO4)2, 5 °C, 1500 bar) was 2860 nM. The Kd ([3]; Binding constant Kb1, 250 mM Mg(ClO4)2, 5 °C, 2000 bar) was 2560 nM, the Kd ([3]; Binding constant Kb1, 250 mM Mg(ClO4)2, 15 °C, 1 bar) was 6670 nM and the Kd ([3]; Binding constant Kb1, 250 mM Mg(ClO4)2, 15 °C, 500 bar) was 7140 nM. It also gave a Kd ([3]; Binding constant Kb1, 250 mM Mg(ClO4)2, 15 °C, 1000 bar) of 5260 nM, a Kd ([3]; Binding constant Kb1, 250 mM Mg(ClO4)2, 15 °C, 1500 bar) of 4760 nM and a Kd ([3]; Binding constant Kb1, 250 mM Mg(ClO4)2, 15 °C, 2000 bar) of 3850 nM. For the same molecule, the Kd ([3]; Binding constant Kb1, 250 mM Mg(ClO4)2, 25 °C, 1 bar) was 1690 nM, the Kd ([3]; Binding constant Kb1, 250 mM Mg(ClO4)2, 25 °C, 500 bar) was 1690 nM and the Kd ([3]; Binding constant Kb1, 250 mM Mg(ClO4)2, 25 °C, 1000 bar) was 2630 nM. The Kd ([3]; Binding constant Kb1, 250 mM Mg(ClO4)2, 25 °C, 1500 bar) was 2940 nM, the Kd ([3]; Binding constant Kb1, 250 mM Mg(ClO4)2, 25 °C, 2000 bar) was 2500 nM and the Kd ([3]; Binding constant Kb1, 250 mM MgCl2, 5 °C, 1 bar) was 1000 ± 100 nM. For the same molecule, the Kd ([3]; Binding constant Kb1, 250 mM MgCl2, 5 °C, 500 bar) was 1000 ± 200 nM, the Kd ([3]; Binding constant Kb1, 250 mM MgCl2, 5 °C, 1000 bar) was 833 nM and the Kd ([3]; Binding constant Kb1, 250 mM MgCl2, 5 °C, 1500 bar) was 556 nM. The Kd ([3]; Binding constant Kb1, 250 mM MgCl2, 5 °C, 2000 bar) was 526 nM, the Kd ([3]; Binding constant Kb1, 250 mM MgCl2, 15 °C, 1 bar) was 2780 nM and the Kd ([3]; Binding constant Kb1, 250 mM MgCl2, 15 °C, 500 bar) was 2500 nM. The Kd ([3]; Binding constant Kb1, 250 mM MgCl2, 15 °C, 1000 bar) was 2440 nM, the Kd ([3]; Binding constant Kb1, 250 mM MgCl2, 15 °C, 1500 bar) was 2330 nM and the Kd ([3]; Binding constant Kb1, 250 mM MgCl2, 15 °C, 2000 bar) was 2220 nM. It also gave a Kd ([3]; Binding constant Kb1, 250 mM MgCl2, 25 °C, 1 bar) of 204 nM, a Kd ([3]; Binding constant Kb1, 250 mM MgCl2, 25 °C, 500 bar) of 233 nM and a Kd ([3]; Binding constant Kb1, 250 mM MgCl2, 25 °C, 1000 bar) of 222 nM. It also gave a Kd ([3]; Binding constant Kb1, 250 mM MgCl2, 25 °C, 1500 bar) of 204 nM, a Kd ([3]; Binding constant Kb1, 250 mM MgCl2, 25 °C, 2000 bar) of 192 nM and a Kd ([3]; Binding constant Kb1, 250 mM MgSO4, 5 °C, 1 bar) of 1610 nM. It also gave a Kd ([3]; Binding constant Kb1, 250 mM MgSO4, 5 °C, 500 bar) of 2080 nM, a Kd ([3]; Binding constant Kb1, 250 mM MgSO4, 5 °C, 1000 bar) of 2130 nM and a Kd ([3]; Binding constant Kb1, 250 mM MgSO4, 5 °C, 1500 bar) of 1820 nM. For the same molecule, the Kd ([3]; Binding constant Kb1, 250 mM MgSO4, 5 °C, 2000 bar) was 2270 nM, the Kd ([3]; Binding constant Kb1, 250 mM MgSO4, 15 °C, 1 bar) was 2560 nM and the Kd ([3]; Binding constant Kb1, 250 mM MgSO4, 15 °C, 500 bar) was 2500 nM. For the same molecule, the Kd ([3]; Binding constant Kb1, 250 mM MgSO4, 15 °C, 1000 bar) was 2380 nM, the Kd ([3]; Binding constant Kb1, 250 mM MgSO4, 15 °C, 1500 bar) was 2330 nM and the Kd ([3]; Binding constant Kb1, 250 mM MgSO4, 15 °C, 2000 bar) was 2220 nM. The Kd ([3]; Binding constant Kb1, 250 mM MgSO4, 25 °C, 1 bar) was 345 nM, the Kd ([3]; Binding constant Kb1, 250 mM MgSO4, 25 °C, 500 bar) was 345 nM and the Kd ([3]; Binding constant Kb1, 250 mM MgSO4, 25 °C, 1000 bar) was 370 nM. The Kd ([3]; Binding constant Kb1, 250 mM MgSO4, 25 °C, 1500 bar) was 417 nM, the Kd ([3]; Binding constant Kb1, 250 mM MgSO4, 25 °C, 2000 bar) was 455 nM and the Kd ([3]; Binding constant Kb2, 250 mM Mg(ClO4)2, 5 °C, 1 bar) was 5260 nM. It also gave a Kd ([3]; Binding constant Kb2, 250 mM Mg(ClO4)2, 5 °C, 500 bar) of 2500 nM, a Kd ([3]; Binding constant Kb2, 250 mM Mg(ClO4)2, 5 °C, 1000 bar) of 2940 nM and a Kd ([3]; Binding constant Kb2, 250 mM Mg(ClO4)2, 5 °C, 1500 bar) of 1920 nM. It also gave a Kd ([3]; Binding constant Kb2, 250 mM Mg(ClO4)2, 5 °C, 2000 bar) of 1520 nM, a Kd ([3]; Binding constant Kb2, 250 mM Mg(ClO4)2, 15 °C, 1 bar) of 7690 nM and a Kd ([3]; Binding constant Kb2, 250 mM Mg(ClO4)2, 15 °C, 500 bar) of 6670 nM. The Kd ([3]; Binding constant Kb2, 250 mM Mg(ClO4)2, 15 °C, 1000 bar) was 5260 nM, the Kd ([3]; Binding constant Kb2, 250 mM Mg(ClO4)2, 15 °C, 1500 bar) was 4760 nM and the Kd ([3]; Binding constant Kb2, 250 mM Mg(ClO4)2, 15 °C, 2000 bar) was 4170 nM. The Kd ([3]; Binding constant Kb2, 250 mM Mg(ClO4)2, 25 °C, 1 bar) was 833 nM, the Kd ([3]; Binding constant Kb2, 250 mM Mg(ClO4)2, 25 °C, 500 bar) was 909 nM and the Kd ([3]; Binding constant Kb2, 250 mM Mg(ClO4)2, 25 °C, 1000 bar) was 833 nM. The Kd ([3]; Binding constant Kb2, 250 mM Mg(ClO4)2, 25 °C, 1500 bar) was 833 nM and the Kd ([3]; Binding constant Kb2, 250 mM Mg(ClO4)2, 25 °C, 2000 bar) was 1120 nM.
